Literature values as cited in patent US12245592B2, “Encapsulated biocides and biorepellents” (Aerogel ApS, priority 2018, dated 2025).

Details: pure biocide

In the case of `On1ccccc1=S.On1ccccc1=S.[Cu]` [Copper pyrithione, copper pyrithione], the Biocide density is listed as 1.82 gr/cm^3.
For `N#C[S][Cu][S]C#N` [Copper thiocyanate], the Biocide density is given as 2.84 gr/cm^3.
In the case of `N#Cc1c(-c2ccc(Cl)cc2)[nH]c(C(F)(F)F)c1Br` [Econea, 4-bromo-2-(4-chlorophenyl)-5-(trifluoromethyl)-1H-pyrrole-3-carbonitrile], the Biocide density is listed as 1.71 gr/cm^3.
In the case of Zinc pyrithione, the Biocide density is listed as 1.78 gr/cm^3.
